Measurements published in patent US20230276803A1, “A PESTICIDALLY ACTIVE MIXTURE COMPRISING THIETANYLOXY COMPOUND, OXIDES OR SALTS THEREOF” (PI INDUSTRIES LTD., priority 2020, published 2023).

Experiments:
Format in all cases: in vivo
Helicoverpa armigera = experiment: Diet incorporation method against Helicoverpa armigera (Example A); settings: Helicoverpa armigera, 96 h, read-out: Observed Efficacy (%)
Description: (§1) In which E represents the expected percentage of inhibition of the pests for the combination of two insecticides or one insecticide and one fungicide at defined doses (for example equal to x and y respectively), x is the percentage of inhibition observed for the pest/disease by the compound (1) at a given dose (equal to x), y is the percentage of inhibition observed for the pest/disease by the compound (2) or (3) at a defined dose (equal to y). When the percentage of inhibition observed for the combination is greater than E, there is a synergistic effect.
The diet incorporation method was used, in which semi-synthetic diet was incorporated into the test solutions consisting either of the single compounds or respective compound combinations, when the temperature was approximately 50° C. in the bio-assay containers, then stirred thoroughly for proper mixing and allowed to cool for 30 min. The solidified diet was cut into equal pieces, and then each piece was transferred into one cell of a bio-assay tray. A single starved third instar larva was released into each of these cells of the bio-assay trays and the tray was covered with a lid. The bio-assay trays were kept under laboratory conditions at a temperature of 25° C. and relative humidity of 70%. Observations on dead, moribund and live larvae were recorded 96 h after the release of the larvae. Percent mortality was calculated by combining dead and moribund larvae and comparing the result to the one of the untreated control. The results are shown for the compound of formula (I-1) in Table A.

Spodoptera litura [1] = experiment: Diet incorporation method against Spodoptera litura (Example B); settings: 96 h
Description: as §1
The diet incorporation method was used, in which semi-synthetic diet was incorporated into the test solution consisting either of the single compound or respective compound combinations, when the temperature was approximately 50° C. in the bioassay containers, then stirred thoroughly for proper mixing and allowed to cool for 30 min. The solidified diet was cut into equal pieces, and then each piece was transferred into one cell of the bio-assay trays. A single starved third instar larva was released into each of these cells of the bio-assay trays and the tray was covered with a lid. The bio-assay trays were kept under laboratory conditions at a temperature of 25° C. and relative humidity of 70%. Observations on dead, moribund and live larvae were recorded 96 h after the release. Percent mortality was calculated by combining dead and moribund larvae and comparing the result with the one of the untreated control. The results are shown for the compound of formula (I-1) in Table B.

Spodoptera litura [2] = experiment: Leaf dip method (tomato leaves), Bacillus thuringiensis mixture against Spodoptera litura (Example E); settings: 0.1 ppm; 72 h
Description: as §1
The leaf dip method was used, wherein the required quantity of the compounds were weighed and dissolved in a test solution prepared in tubes. The tubes were put on a vortex at 2000 rpm for 90 min for proper mixing and then, for the single compounds, diluted with a 0.01% Triton-X solution, for the combinations, diluted with a 0.01% Triton-X solution containing formulated Bt, to get the desired test concentration. Tomato leaves were dipped in the solution for 10 seconds, shade dried for 20 min and then transferred to single cells of the bioassay trays. […] Observations on dead, moribund and live larvae were recorded at 72 h after the release. Percent mortality was calculated by combining dead and moribund larvae and comparing the results to the one of the untreated control. […]

Pyricularia oryzae = settings: 500 ppm; preventive spray, rice
Alternaria solani = experiment: Preventive glasshouse test against Alternaria solani in tomato (Example G); settings: preventive spray
Description: as §1
The single compounds or respective compound combinations were dissolved in 2% dimethyl sulfoxide/acetone and then mixed with water containing emulsifier to a calibrated spray volume of 50 mL. The test solutions were poured into spray bottles for further applications.
To test the preventive activity, healthy young tomato plants, raised in the greenhouse, were sprayed with the active compound preparation at the stated application rates inside the spray cabinets using hollow cone nozzles. One day after treatment, the plants were inoculated with a spore suspension containing 0.24×10^6 Alternaria solani inoculum and 2% Malt. The inoculated plants were then kept in a greenhouse chamber at a temperature of 22-24° C. and 90-95% relative humidity for disease expression.
A visual assessment of the performance of the single compounds or compound combinations was carried out by rating the disease severity (0-100% scale) on treated plants 3, 7, 10 and 15 days after application. Efficacy (% control) of the single compounds and mixtures was calculated by comparing the disease rating in the treatment with the one of the untreated control. The compounds were also assessed for their plant compatibility by recording symptoms like necrosis, chlorosis and stunting. The results have been described for the compound of formula (I-1) in Table G.

## Cc1cc(Cl)cc(C(=O)NC(C)(C)C)c1NC(=O)c1cc(OC2CS(=O)(=O)C2)nn1-c1ncccc1Cl [Compound (I-1), N-(2-(tert-butylcarbamoyl)-4-chloro-6-methylphenyl)-1-(3-chloropyridin-2-yl)-3-((1,1-dioxidothietan-3-yl)oxy)-1H-pyrazole-5-carboxamide]
Helicoverpa armigera; 0.1 ppm
  pest or weed control at 0.1 ppm: 12.5%
Helicoverpa armigera; 0.41 ppm
  pest or weed control at 0.41 ppm: 50%
Helicoverpa armigera; 1 ppm
  pest or weed control at 1 ppm: 25%
Spodoptera litura [1]; read-out: Observed Efficacy (%), 0.32 ppm
  pest or weed control at 0.32 ppm: 37.5%
Spodoptera litura [1]; read-out: Observed Efficacy (%), 1 ppm
  pest or weed control at 1 ppm: 25%
Spodoptera litura [2]
  Observed Efficacy (%): 0%
Pyricularia oryzae
  Observed Efficacy (%): 38%
Alternaria solani; 100 ppm
  Observed Efficacy (%): 14%
Alternaria solani; 500 ppm
  Observed Efficacy (%): 16%
